Test results from patent publication US7803769B2 (priority 2006, dated 2010).

Experiments:
human Kv1.3 channel = human Kv1.3 channel (Homo sapiens, UniProt P22001); format: cell-based
human Kv1.1 = molecular target: T1, human Kv1.1 (Homo sapiens, UniProt Q09470); format: cell-based
T1 construct: expressed in transfected cells; host or cells: HEK293

[1] = tested on: IL-2 production from PMA and αCD3 antibody stimulated human PBMCs; format: cell-based
[2] = tested on: IFNγ production from PMA and αCD3 antibody stimulated human PBMCs; format: cell-based
[3] = tested on: IL-2 production from αCD3 and αCD28 antibody stimulated human PBMCs; format: cell-based
[4] = tested on: IFNγ production from αCD3 and αCD28 antibody stimulated human PBMCs; format: cell-based
[5] = tested on: adoptive transfer EAE model of multiple sclerosis; settings: rat, in vivo, sc
[6] = tested on: thapsigargin-induced IFN-g production in human whole blood; format: cell-based
[7] = tested on: CD40L on CD4+ T cells in human whole blood; format: cell-based
[8] = tested on: IL-2R on CD4+ T cells in human whole blood; format: cell-based
[9] = rat, in vivo, iv
[10] = tested on: T cell proliferation in human PBMCs; assay: T cell proliferation (3H-thymidine incorporation) in anti-CD3/anti-CD28 stimulated human PBMCs; format: cell-based; settings: two normal donors
Source text: Inhibition of T cell proliferation following anti-CD3 and anti-CD28 antibody stimulation of PBMCs. PBMC's were previously isolated from normal human donor Leukophoresis packs, purified by density gradient centrifugation (Ficoll Hypaque), cryopreserved in CPZ Cryopreservation Medium Complete (INCELL, MCPZF-100 plus 10% DMSO final). PBMC's were thawed (95% viability), washed, and seeded at 2×10^5 cells per well in culture medium (RPMI medium 1640; GIBCO) supplemented with 10% fetal calf serum, 100 U/ml penicillin, […] streptomycin, 2 mM L-glutamine, 100 μM non-essential amino acids, and 20 μM 2-ME) in 96-well flat-bottom tissue culture plates. Cells were pre-incubated with either anti-human CD32 (FcyRII) blocking antibody (per manufacturers instructions EASY SEP Human Biotin Selection Kit #18553, StemCell Technologies Vancouver, BC) or Fc-L10-ShK (100 nM-0.001 nM final) for 45 min. Fc-L10-ShK (100 nM-0.001 nM final) was then added to the cells containing anti-human CD32 blocking antibody while medium was added to the cells containing Fc-L10-ShK. Both sets were incubated for an additional 45 min before stimulating for 48 hr with aCD3/aCD28 (0.2 ng/ml and 100 ng/ml, respectively). Final assay volume was 200 ul. […] Cells were then harvested onto glass fiber filters and radioactivity was measured in a B-scintillation counter.

[11] = molecular target: HEK 293 cells overexpressing human Kv1.3 (Homo sapiens, UniProt P22001); assay: Immunohistochemistry binding to HEK 293 cells overexpressing human Kv1.3; settings: 5 μg/ml
HEK 293 cells overexpressing human Kv1.3, sequence (P22001 whole entry): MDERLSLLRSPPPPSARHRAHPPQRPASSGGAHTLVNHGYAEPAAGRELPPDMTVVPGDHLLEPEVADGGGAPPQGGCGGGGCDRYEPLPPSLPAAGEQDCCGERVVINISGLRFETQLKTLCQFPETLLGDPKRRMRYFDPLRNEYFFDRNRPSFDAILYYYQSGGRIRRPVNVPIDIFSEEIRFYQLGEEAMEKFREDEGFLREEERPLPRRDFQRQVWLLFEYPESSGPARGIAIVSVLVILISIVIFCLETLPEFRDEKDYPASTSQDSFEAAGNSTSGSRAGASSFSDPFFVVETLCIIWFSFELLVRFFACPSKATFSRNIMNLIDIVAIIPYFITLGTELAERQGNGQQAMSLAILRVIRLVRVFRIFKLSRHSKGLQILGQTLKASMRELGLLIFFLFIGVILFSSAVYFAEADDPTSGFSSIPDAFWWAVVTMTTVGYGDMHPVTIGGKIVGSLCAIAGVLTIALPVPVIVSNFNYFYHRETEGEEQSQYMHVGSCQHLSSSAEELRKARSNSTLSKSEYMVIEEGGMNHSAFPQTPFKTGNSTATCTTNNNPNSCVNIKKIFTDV
Experimental: Immunohistochemistry analysis of Fc-L10-ShK[1-35] binding to HEK 293 cells overexpressing human Kv1.3. HEK 293 cells overexpressing human Kv1.3 (HEK Kv1.3) were obtained from BioFocus plc (Cambridge, UK) and maintained per manufacturer's recommendation. The parental HEK 293 cell line was used as a control. Cells were plated on Poly-D-Lysine 24 well plates (#35-4414; Becton-Dickinson, Bedford, Mass.) and allowed to grow to approximately 70% confluence. HEK KV1.3 were plated at 0.5×10e5 cells/well in 1 ml/well of medium. HEK 293 cells were plated at a density of 1.5×10e5 cells/well in 1 ml/well of medium. Before staining, cells were fixed with formalin (Sigma HT50-1-1 Formalin solution, diluted 1:1 with PBS/0.5% BSA before use) by removing cell growth medium, adding 0.2 ml/well formalin solution and incubating at room temperature for ten minutes. Cells were stained by incubating with 0.2 ml/well of 5 μg/ml Fc-L10-ShK[1-35] in PBS/BSA for 30′ at room temperature. Fc-L10-ShK[1-35] was aspirated and then the cells were washed one time with PBS/0.5% BSA. Detection antibody (Goat F(ab)2 anti-human IgG-phycoerythrin; Southern Biotech Associates, Birmingham, Ala.) was added to the wells at 5 μg/ml in PBS/0.5% BSA and incubated for 30′ at room temperature. Wash cells once with PBS/0.5% BSA and examine using confocal microscopy (LSM 510 Meta Confocal Microscope; Carl Zeiss AG, Germany). […]

[12] = molecular target: fixed HEK 293 cells stably transfected with human Kv1.3 (Homo sapiens, UniProt P22001); assay: Whole cell immunoassay (ELISA) on fixed HEK 293 cells overexpressing Kv1.3; format: binding
fixed HEK 293 cells stably transfected with human Kv1.3, sequence (P22001 whole entry): as above
Experimental: Our peptibody reagent can be a useful and convenient tool for monitoring Kv1.3 channel expression in patients and have utility in diagnostic applications. The procedure shown in FIG. 34A and FIG. 34B follows.
FIG. 34A. A whole cell immunoassay was performed to show binding of intact Fc-L10-ShK[1-35] to Kv1.3 transfected HEK 293 cells (BioFocus plc, Cambridge, UK). Parent HEK 293 cells or HEK Kv1.3 cells were plated at 3×10e4 cells/well in poly-D-Lysine coated ninety-six well plates (#35-4461; Becton-Dickinson, Bedford, Mass.). Cells were fixed with formalin (Sigma HT50-1-1 Formalin solution, diluted 1:1 with PBS/0.5% BSA before use) by removing cell growth medium, adding 0.2 ml/well formalin solution and incubating at room temperature for 25 minutes and then washing one time with 100 μl/well of PBS/0.5% BSA. Wells were blocked by addition of 0.3 ml/well of BSA blocker (50-61-00; KPL 10% BSA Diluent/Blocking Solution, diluted 1:1 with PBS; KPL, Gaithersburg, Md.) followed by incubation at room temperature, with shaking, for 3 hr. Plates were washed 2 times with 1×KP Wash Buffer (50-63-00; KPL). […] Absorbance was read at 450 nm on a Molecular Devices SpectroMax 340 (Sunnyvale, Calif.).
FIG. 34B. […] Absorbances were read at 405 nm after stopping reactions by addition of 0.1 ml/well of 1% SDS.

human Kv1.3 channel, sequence (P22001 whole entry): as above
T1 sequence (Q09470 whole entry): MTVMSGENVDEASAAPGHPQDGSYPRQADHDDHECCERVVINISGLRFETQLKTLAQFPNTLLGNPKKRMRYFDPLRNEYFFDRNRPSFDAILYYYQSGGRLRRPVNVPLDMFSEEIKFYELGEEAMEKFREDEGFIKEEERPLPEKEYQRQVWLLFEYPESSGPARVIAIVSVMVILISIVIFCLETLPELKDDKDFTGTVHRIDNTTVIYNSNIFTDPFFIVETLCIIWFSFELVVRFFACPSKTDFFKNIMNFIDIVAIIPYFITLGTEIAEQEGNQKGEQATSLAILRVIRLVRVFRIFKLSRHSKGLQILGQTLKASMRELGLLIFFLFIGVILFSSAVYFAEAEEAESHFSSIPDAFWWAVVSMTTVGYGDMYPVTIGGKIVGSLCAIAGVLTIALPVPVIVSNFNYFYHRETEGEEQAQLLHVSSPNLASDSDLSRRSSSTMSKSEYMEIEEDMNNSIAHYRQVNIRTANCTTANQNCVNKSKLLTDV

Row | Molecule | difference in Kv1.3 potency compared to Fc-L10-OSK1 (human Kv1.3 channel) [fold] | fold less potent than the synthetic OSK1 toxin peptide (Kv1.3) (human Kv1.3 channel) | blocking activity against Kv1.1 (in words) (human Kv1.1) | inhibition of IL-2 production (in words) [1] | inhibition of IFNγ production (in words) [2] | inhibition of IL-2 production (in words) [3] | inhibition of IFNg production (in words) [4] | average body weight lost [5] [g] | disease severity and survival (in words) [5] | onset of disease [5] [days] | thapsigargin-induced IFN-g production in human whole blood (in words) [6] | thapsigargin-induced upregulation of CD40L on T cells (in words) [7] | thapsigargin-induced upregulation of IL-2R on T cells (in words) [8] | time of significant suppression of Kv1.3 current (<70 POC) by 5% serum Test solutions [9] [h] | block of human Kv1.3 current (in words) (human Kv1.3 channel) | inhibition of T cell proliferation (in words) [10] | binding to Kv1.3 overexpressing HEK 293 cells (staining) [11] | binding to fixed cells that overexpress Kv1.3 (ELISA) [12]
1 | Fc-L10-OSK1[E16K,K20D]: Fc-L10-OSK1 with E16K and K20D substitutions | 1.3 | approximately 6 fold | removed the blocking activity against Kv1.1 |  |  |  |  |  |  |  |  |  |  |  |  |  |  | 
2 | CC[C@H](C)[C@@H]1NC(=O)[C@@H](NC(=O)[C@H](CO)NC(=O)[C@@H](N)CCCNC(=N)N)CSSC[C@@H](C(=O)O)NC(=O)[C@H]([C@@H](C)O)NC(=O)CNC(=O)[C@@H]2CSSC[C@@H]3NC(=O)[C@H](CCC(N)=O)NC(=O)[C@H](Cc4ccccc4)NC(=O)[C@H](C)NC(=O)[C@H]([C@@H](C)O)NC(=O)[C@H](CSSC[C@H](NC(=O)[C@H](Cc4ccccc4)NC(=O)[C@H](CO)NC(=O)[C@H](CC(C)C)NC(=O)[C@H](CCCNC(=N)N)NC(=O)[C@H](Cc4ccc(O)cc4)NC(=O)[C@H](CCCCN)NC(=O)[C@H](CCSC)NC(=O)[C@H](CO)NC(=O)[C@H](Cc4cnc[nH]4)NC(=O)[C@H](CCCCN)NC3=O)C(=O)N[C@@H](CCCNC(=N)N)C(=O)N[C@@H](CCCCN)C(=O)N[C@@H]([C@@H](C)O)C(=O)N2)NC(=O)[C@H](CCCNC(=N)N)NC(=O)[C@H](CO)NC(=O)[C@H](CCCCN)NC(=O)[C@@H]2CCCN2C(=O)[C@H]([C@@H](C)CC)NC(=O)[C@H]([C@@H](C)O)NC(=O)[C@H](CC(=O)O)NC1=O [ShK, reference compound] |  |  |  | only a partial inhibition | only a partial inhibition | only partial inhibition | only partial inhibition | 30 | developed severe disease and died | 4 | suppressed | suppressed | suppressed | ≤ 1 |  |  |  | 
3 | Fc-L10-ShK[1-35]: Fc region of human IgG1 fused in-frame to L10 linker and a monomer of ShK[1-35] |  |  |  | complete inhibition of the response | complete inhibition of the response | nearly complete inhibition | nearly complete inhibition |  |  |  |  | suppressed | suppressed |  | potently blocked human Kv1.3 | potently inhibits proliferation of T cells in a dose-dependent manner | binds to Kv1.3 overexpressing HEK 293 cells but shows little binding to untransfected cells | dose-dependent increase in the peptibody binding to fixed cells that overexpress Kv1.3
